ChEMBL document CHEMBL1131353, “Structurally similar small molecule photoaffinity CCK-A agonists and antagonists as novel tools for directly probing 7TM receptors-ligand interactions” (Bioorg Med Chem Lett, 1998)

Legend:
[1] = species: Rattus norvegicus; experiment: Compound was tested in vitro for its ability to stimulate dispersed rat pancreatic acini to secrete amylase into the medium using CCK-8 as an agonist control; type: functional
[2] = target: T1, Cholecystokinin receptor type A (Rattus norvegicus, UniProt P30551); experiment: Displacement of 125I]-D-Tyr-Gly-[(Nle28,31)CCK-26-33] from rat cell membrane Cholecystokinin type A receptor
T1 sequence (P30551 whole entry): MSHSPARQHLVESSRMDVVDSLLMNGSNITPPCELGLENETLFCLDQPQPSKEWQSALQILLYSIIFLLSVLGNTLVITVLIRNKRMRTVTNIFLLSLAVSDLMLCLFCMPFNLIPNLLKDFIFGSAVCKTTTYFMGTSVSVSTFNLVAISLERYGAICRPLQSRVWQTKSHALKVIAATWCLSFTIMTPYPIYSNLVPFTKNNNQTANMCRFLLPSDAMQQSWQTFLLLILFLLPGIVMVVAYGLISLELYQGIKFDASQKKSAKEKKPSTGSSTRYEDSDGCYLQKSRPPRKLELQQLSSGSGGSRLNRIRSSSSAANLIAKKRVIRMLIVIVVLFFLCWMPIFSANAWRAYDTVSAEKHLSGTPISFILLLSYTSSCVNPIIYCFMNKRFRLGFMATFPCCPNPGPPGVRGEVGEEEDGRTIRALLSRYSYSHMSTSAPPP

[3] = target: T2, Cholecystokinin receptor type A (Rattus norvegicus) (UniProt P30551); experiment: In vitro efficacy was measured in rat Cholecystokinin type A receptor at 1.0 uM
T2 sequence (whole entry): T1 sequence (P30551 whole entry)

[4] = species: Rattus norvegicus; experiment: Compound was tested in vitro for its ability to stimulate dispersed rat pancreatic acini to secrete amylase into the medium using CCK-8 as an agonist control; no activity detected at maximum concentration; type: functional

Row | SMILES | EC50 [1] [nM] | IC50 [2] [nM] | Efficacy [3] [%] | EC50 [4]
1 | COc1ccc(N(C(=O)CN2C(=O)C(NC(=O)Nc3cccc(C(=O)c4ccccc4)c3)C(=O)N(c3ccccc3)c3ccccc32)C(C)C)cc1 (centres undefined) | 460 | 80 | 68 | 
2 | CC(C)N(C(=O)CN1C(=O)C(NC(=O)Nc2cccc(C3(C(F)(F)F)N=N3)c2)C(=O)N(c2ccccc2)c2ccccc21)c1ccccc1 (centres undefined) | 930 | 1300 | 47 | 
3 | CSCC[C@H](NC(=O)[C@H](Cc1ccc(OS(=O)(=O)O)cc1)NC(=O)[C@@H](N)CC(=O)O)C(=O)NCC(=O)N[C@@H](Cc1c[nH]c2ccccc12)C(=O)N[C@@H](CCSC)C(=O)N[C@@H](CC(=O)O)C(=O)N[C@@H](Cc1ccccc1)C(N)=O [SINCALIDE] | 0.014 |  |  | 
4 | COc1ccc(N(C)C(=O)CN2C(=O)C(NC(=O)Nc3cccc(C(=O)c4ccccc4)c3)C(=O)N(c3ccccc3)c3ccccc32)cc1 (centres undefined) |  | 350 |  | Not Active
5 | COc1ccc(N(C)C(=O)CN2C(=O)C(NC(=O)Nc3ccccc3)C(=O)N(c3ccccc3)c3ccccc32)cc1 (centres undefined) |  | 390 |  | 
6 | CC(C)N(C(=O)CN1C(=O)C(NC(=O)Nc2cccc(C(=O)c3ccccc3)c2)C(=O)N(c2ccccc2)c2ccccc21)c1ccccc1 (centres undefined) | 730 | 160 | 64 | 
7 | COc1ccc(N(C(=O)CN2C(=O)C(NC(=O)Nc3ccccc3)C(=O)N(c3ccccc3)c3ccccc32)C(C)C)cc1 (centres undefined) |  | 50 |  | 
8 | CN(C(=O)CN1C(=O)C(NC(=O)Nc2cccc(C(=O)c3ccccc3)c2)C(=O)N(c2ccccc2)c2ccccc21)c1ccccc1 (centres undefined) |  | 290 |  | 
9 | CN(C(=O)CN1C(=O)C(NC(=O)Nc2cccc(C3(C(F)(F)F)N=N3)c2)C(=O)N(c2ccccc2)c2ccccc21)c1ccccc1 (centres undefined) |  | 310 |  | Not Active
10 | COc1ccc(N(C(=O)CN2C(=O)C(NC(=O)Nc3cccc(C4(C(F)(F)F)N=N4)c3)C(=O)N(c3ccccc3)c3ccccc32)C(C)C)cc1 (centres undefined) | 600 | 440 | 75 | 
11 | CC(C)N(C(=O)CN1C(=O)C(NC(=O)Nc2ccccc2)C(=O)N(c2ccccc2)c2ccccc21)c1ccccc1 (centres undefined) | 40 |  | 83 | 
12 | COc1ccc(N(C)C(=O)CN2C(=O)C(NC(=O)Nc3cccc(C4(C(F)(F)F)N=N4)c3)C(=O)N(c3ccccc3)c3ccccc32)cc1 (centres undefined) |  | 410 |  | Not Active
